Experimental data as given in patent US10563204B2, “Methods of treating cancer harboring hemizygous loss of TP53” (priority 2015, dated 2020).
In brackets after ≈: the same amount, converted by molar mass. Numbered stars: 1 amine (or outer) side, 2 acyl side, 3 side chain; on linkers, the order of the positions; unused ones are H or OH. Bridge positions count the residues as written; N and C are the ends. Square brackets hold non-standard residues; d marks the D form. Peptide text beside a SMILES is read from it. I, II: the chains in the order shown. Actinocin(9to1) = Cc1c2oc3c(C)ccc(C(=O)[*:1])c3nc-2c(C(=O)[*:2])c(N)c1=O; NMeV = CN[C@H](C(=O)O)C(C)C; Sar = CNCC(=O)O

What was measured:
[1] = system: POLR2A^neutral cells (HCT116, SW480); experiment: Cell proliferation and survival assay, POLR2A^neutral colorectal cancer cells; format: cell-based, human
Protocol: (§1) Equal numbers of cells were plated in 12-well plates in triplicate. Cells were fixed with 10% methanol and stained with 0.1% crystal violet (dissolved in 10% methanol) at indicated times. After staining, wells were washed three times with PBS and destained with acetic acid. The absorbance of the crystal violet solution was measured at 590 nm. For cell survival assay, cells were seeded at a concentration of 1,000 cells per well in 96-well plates and treated with indicated concentrations of α-Amanitin or actinomycin D 24 hours later. Cell viability was quantified using WST-1 reagent (Roche) according to the manufacturer's instructions. All experiments were performed in triplicate.

[2] = system: POLR2A^loss cells (SW837, SNU283); experiment: Cell proliferation and survival assay, POLR2A^loss colorectal cancer cells; format: cell-based, human
Protocol: as §1

[3] = system: POLR2A^loss HCT116 cells; experiment: Cell proliferation and survival assay, isogenic HCT116 cells with hemizygous loss of POLR2A (CRISPR/Cas9); format: cell-based, human
Protocol: as §1
To exclude the effects of various genetic backgrounds across cell lines, the CRISPR (clustered regularly interspaced short palindromic repeat)/Cas9 system was employed to generate an isogenic HCT116 cell line with hemizygous loss of POLR2A (Wang et al., 2014; Wang et al., 2013). Two single-guide RNAs (sgRNAs) were designed to target the second exon of the POLR2A gene (FIG. 9A). Both of them efficiently targeted and disrupted the POLR2A gene, as shown in the Surveyor analysis (FIG. 9B). Single colonies of HCT116 cells bearing mono-allelic deletion of POLR2A were selected and verified by DNA sequencing (FIG. 9C). Small deletion in the targeted region led to open reading frame shift, producing only a short stretch of the N-terminal peptide without all functional domains of POLR2A. […] However, hemizygous deletion of POLR2A dramatically sensitized HCT116 cells to α-Amanitin treatment with an IC50 of ˜0.1 μg ml^−1, which is 8-fold lower than that of parental HCT116 cells (FIGS. 2G and 2H). […] POLR2A^loss and POLR2A^neutral HCT116 cells expressing Dox-inducible POLR2A shRNA were also generated. […] While a low-dose of Dox (100 ng ml^−1) was sufficient to remarkably kill the POLR2A^loss cells, high doses of Dox only had minimal effects on the POLR2A^neutral cells (FIGS. 2I, 2J, and 9H).

[4] = system: xhCRC and HCT116 cells; experiment: Sensitivity of isogenic xhCRC and HCT116 cells (TP53 / POLR2A hemizygous deletion) to α-Amanitin; format: cell-based, human
Protocol: as §1
(§2) Blockage of RNA polymerase may lead to p53 accumulation and activation (Derheimer et al., 2007). To examine the effects of p53 on cell response to POLR2A inhibition, the concomitant deletion of TP53 and POLR2A was recapitulated in HCT116 and xhCRC cell lines (FIGS. 3A and 10A-10C). […] The RNA polymerase II is in charge of mRNA synthesis, an essential function for any type of cells including therapy-resistant tumor cells. The drug sensitivity of POLR2A^neutral and POLR2A^loss cells to three major chemotherapy drugs for colorectal cancer (5-fluorouracil (5-FU), oxaliplatin, and SN-38) was examined. […]

[5] = system: POLR2A^loss xhCRC cells; format: cell-based, human; details: α-Amanitin combined with each of the three drugs
Protocol: as §1, §2

[6] = system: POLR2A^neutral xhCRC cells; format: cell-based, human; details: α-Amanitin combined with each of the three drugs
Protocol: as §1, §2

[7] = target: OATP1B3 (Homo sapiens, UniProt Q9NPD5); details: free α-Amanitin; transporter on hepatocyte membrane; cited from earlier work
[8] = free α-Amanitin; cited from earlier work

Chain of OATP1B3 (Q9NPD5 whole entry): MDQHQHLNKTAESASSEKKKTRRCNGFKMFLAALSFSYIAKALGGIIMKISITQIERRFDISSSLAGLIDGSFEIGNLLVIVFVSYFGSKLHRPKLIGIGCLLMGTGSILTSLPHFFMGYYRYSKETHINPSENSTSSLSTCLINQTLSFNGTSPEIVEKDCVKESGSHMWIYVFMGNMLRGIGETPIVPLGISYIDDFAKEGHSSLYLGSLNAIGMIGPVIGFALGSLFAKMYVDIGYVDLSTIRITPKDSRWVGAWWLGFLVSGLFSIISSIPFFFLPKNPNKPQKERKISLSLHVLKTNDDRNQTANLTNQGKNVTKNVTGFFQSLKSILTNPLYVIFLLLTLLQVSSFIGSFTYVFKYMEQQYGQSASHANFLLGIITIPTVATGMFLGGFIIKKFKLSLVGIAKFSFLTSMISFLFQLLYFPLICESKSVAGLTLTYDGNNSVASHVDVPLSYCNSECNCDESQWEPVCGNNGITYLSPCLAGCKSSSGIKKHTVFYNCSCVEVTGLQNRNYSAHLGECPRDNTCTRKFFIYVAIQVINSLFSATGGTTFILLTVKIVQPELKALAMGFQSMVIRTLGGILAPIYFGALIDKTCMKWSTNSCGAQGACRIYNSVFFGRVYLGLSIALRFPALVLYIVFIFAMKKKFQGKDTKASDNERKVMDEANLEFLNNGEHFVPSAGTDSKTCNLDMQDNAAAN

Row | SMILES | half-maximum inhibitory concentration (IC50) ([1]; POLR2A^neutral cells (HCT116, SW480)) | cell growth / cell death at high concentrations ([1]; ≥1 μg ml^−1, HCT116, SW480) | resistance to α-Amanitin after re-expression of exogenous POLR2A ([2]; SNU283 and SW837 re-expressing exogenous POLR2A, level comparable to HCT116 and SW480) | cell-killing effect compared with POLR2A^neutral cells ([2]; concentrations from 0 to 1.0 μg ml^−1) | IC50 of POLR2A^neutral cells relative to that of POLR2A^loss cells ([2]; neutral (HCT116, SW480) vs loss (SW837, SNU283)) | cell growth / cell death at high concentrations ([2]; ≥1 μg ml^−1, SW837, SNU283) | IC50 ([3]; HCT116 with hemizygous deletion of POLR2A) | IC50 lower than that of parental HCT116 cells ([3]; POLR2A^loss vs parental HCT116) | change in sensitivity to α-Amanitin ([4]; cells with hemizygous deletion of TP53) | change in sensitivity to α-Amanitin ([4]; cells with hemizygous loss of POLR2A, regardless of TP53 status) | effect on cell killing by 5-FU, oxaliplatin and SN-38 [5] | effect on cell killing by 5-FU, oxaliplatin and SN-38 [6] | binding by OATP1B3 [7] | liver toxicity [8] | sensitivity compared with POLR2A^neutral cells ([2]; actinomycin D treatment) | difference in sensitivity between POLR2A^loss and POLR2A^neutral HCT116 cells ([3]; actinomycin D)
1 | CC[C@H](C)[C@@H]1NC(=O)CNC(=O)[C@@H]2Cc3c([nH]c4cc(O)ccc34)[S+]([O-])C[C@@H](NC(=O)CNC1=O)C(=O)N[C@@H](CC(N)=O)C(=O)N1C[C@H](O)C[C@H]1C(=O)N[C@@H]([C@@H](C)[C@@H](O)CO)C(=O)N2 (stereo in doubt) [α-Amanitin] | ~1.0 µg/mL | complete cell death | restored their resistance | significantly higher levels of cell-killing effect | 10 fold | complete cell death | ~0.1 µg/mL (≈ 0.109 µM) | 8 fold | no significant changes | markedly sensitized | significantly enhanced cell-killing effects | no notable effects | specifically bound | toxic to liver | – | –
2 | Cc1c2oc3c(C)ccc(C(=O)N[C@@H]4C(=O)N[C@H](C(C)C)C(=O)N5CCC[C@H]5C(=O)N(C)CC(=O)N(C)[C@@H](C(C)C)C(=O)O[C@@H]4C)c3nc-2c(C(=O)N[C@@H]2C(=O)N[C@H](C(C)C)C(=O)N3CCC[C@H]3C(=O)N(C)CC(=O)N(C)[C@@H](C(C)C)C(=O)O[C@@H]2C)c(N)c1=O [actinomycin D] (I: T[dV]P[Sar][NMeV] / II: T[dV]P[Sar][NMeV]; ester I:1-I:C, II:1-II:C; linker I:N-II:N via Actinocin(9to1)) | – | – | – | – | – | – | – | – | – | – | – | – | – | – | did not show any greater sensitivity | no substantial difference
